Data: ChEMBL document CHEMBL3991601, “The target landscape of clinical kinase drugs” (Science, 2017)
The source made the active and inactive calls. Rule as the data show it, for most assays here: actives have a measured Kd and inactives only a lower limit.

Assays:
[1] = molecular target: Maternal embryonic leucine zipper kinase (Homo sapiens, UniProt Q14680)
[2] = molecular target: Calcium/calmodulin-dependent protein kinase type II subunit delta (Homo sapiens, UniProt Q13557)
[3] = molecular target: Tyrosine-protein kinase Yes (Homo sapiens, UniProt P07947)
Tyrosine-protein kinase Yes, sequence (P07947 whole entry): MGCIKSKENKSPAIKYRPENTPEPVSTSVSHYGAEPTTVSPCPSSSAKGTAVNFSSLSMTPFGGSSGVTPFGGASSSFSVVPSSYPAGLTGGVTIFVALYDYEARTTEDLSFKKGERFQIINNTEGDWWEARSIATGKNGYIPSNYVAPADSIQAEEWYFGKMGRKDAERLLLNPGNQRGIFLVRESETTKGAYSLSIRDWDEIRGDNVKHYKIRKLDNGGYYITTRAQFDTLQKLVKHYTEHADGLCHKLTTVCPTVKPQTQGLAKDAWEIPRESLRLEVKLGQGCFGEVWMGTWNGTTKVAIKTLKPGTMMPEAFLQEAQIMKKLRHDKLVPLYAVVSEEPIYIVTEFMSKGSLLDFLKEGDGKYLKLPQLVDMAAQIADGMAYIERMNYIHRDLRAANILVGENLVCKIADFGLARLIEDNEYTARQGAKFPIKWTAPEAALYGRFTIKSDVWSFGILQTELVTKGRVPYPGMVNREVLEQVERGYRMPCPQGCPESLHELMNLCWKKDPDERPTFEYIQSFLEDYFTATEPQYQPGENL

[4] = molecular target: Calcium/calmodulin-dependent protein kinase kinase 2 (Homo sapiens, UniProt Q96RR4)
Calcium/calmodulin-dependent protein kinase kinase 2, sequence (Q96RR4 whole entry): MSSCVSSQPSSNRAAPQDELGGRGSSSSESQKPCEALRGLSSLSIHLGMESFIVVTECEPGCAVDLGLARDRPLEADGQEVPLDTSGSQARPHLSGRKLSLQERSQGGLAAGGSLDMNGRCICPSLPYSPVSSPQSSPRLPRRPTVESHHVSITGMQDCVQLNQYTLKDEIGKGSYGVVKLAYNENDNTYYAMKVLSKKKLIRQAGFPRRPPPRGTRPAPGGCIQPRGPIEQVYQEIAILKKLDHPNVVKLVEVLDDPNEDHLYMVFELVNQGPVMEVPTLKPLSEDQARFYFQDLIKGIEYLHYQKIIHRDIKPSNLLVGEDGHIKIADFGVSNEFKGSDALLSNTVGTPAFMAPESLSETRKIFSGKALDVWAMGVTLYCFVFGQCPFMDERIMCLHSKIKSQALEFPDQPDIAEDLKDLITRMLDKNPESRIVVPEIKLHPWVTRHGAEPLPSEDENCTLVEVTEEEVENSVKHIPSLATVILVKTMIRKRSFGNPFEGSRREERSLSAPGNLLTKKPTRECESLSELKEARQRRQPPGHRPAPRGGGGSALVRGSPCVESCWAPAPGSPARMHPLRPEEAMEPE

[5] = molecular target: T1, Cyclin-G-associated kinase (Homo sapiens, UniProt O14976)
T1 sequence (O14976 whole entry): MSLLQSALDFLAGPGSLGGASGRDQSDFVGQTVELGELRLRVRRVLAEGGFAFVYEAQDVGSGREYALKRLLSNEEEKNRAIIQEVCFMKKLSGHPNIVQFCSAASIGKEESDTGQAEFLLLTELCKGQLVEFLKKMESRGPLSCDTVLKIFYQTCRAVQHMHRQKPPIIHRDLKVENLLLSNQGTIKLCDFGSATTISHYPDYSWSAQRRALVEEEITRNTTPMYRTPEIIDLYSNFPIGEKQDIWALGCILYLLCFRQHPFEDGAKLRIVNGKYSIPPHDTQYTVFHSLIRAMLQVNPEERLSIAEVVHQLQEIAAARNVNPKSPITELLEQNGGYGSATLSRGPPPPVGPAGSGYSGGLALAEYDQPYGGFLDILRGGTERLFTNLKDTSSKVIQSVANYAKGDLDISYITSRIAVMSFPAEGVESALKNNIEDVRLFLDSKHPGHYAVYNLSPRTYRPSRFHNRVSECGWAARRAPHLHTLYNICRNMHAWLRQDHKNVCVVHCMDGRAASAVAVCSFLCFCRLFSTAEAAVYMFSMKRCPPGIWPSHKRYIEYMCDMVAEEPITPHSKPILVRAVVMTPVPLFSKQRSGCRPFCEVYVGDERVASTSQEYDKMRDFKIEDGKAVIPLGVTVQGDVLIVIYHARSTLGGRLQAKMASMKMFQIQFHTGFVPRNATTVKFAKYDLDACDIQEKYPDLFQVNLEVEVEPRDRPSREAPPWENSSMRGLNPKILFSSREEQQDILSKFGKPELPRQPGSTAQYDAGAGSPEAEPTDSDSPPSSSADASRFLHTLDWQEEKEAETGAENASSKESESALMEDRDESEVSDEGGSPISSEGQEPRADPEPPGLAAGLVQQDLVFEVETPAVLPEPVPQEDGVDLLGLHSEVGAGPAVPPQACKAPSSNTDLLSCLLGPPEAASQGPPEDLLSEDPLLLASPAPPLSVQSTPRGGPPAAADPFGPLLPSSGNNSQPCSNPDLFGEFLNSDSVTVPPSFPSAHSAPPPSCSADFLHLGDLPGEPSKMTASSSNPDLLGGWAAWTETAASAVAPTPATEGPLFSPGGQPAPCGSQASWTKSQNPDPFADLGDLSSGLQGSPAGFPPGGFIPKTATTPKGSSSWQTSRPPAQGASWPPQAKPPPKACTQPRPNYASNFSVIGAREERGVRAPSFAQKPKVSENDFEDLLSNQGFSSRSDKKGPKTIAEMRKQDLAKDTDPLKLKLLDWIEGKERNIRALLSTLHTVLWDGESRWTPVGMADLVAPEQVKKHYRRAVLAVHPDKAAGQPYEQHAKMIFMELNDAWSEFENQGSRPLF

Ephrin type-B receptor 3 = molecular target: T2, Ephrin type-B receptor 3 (Homo sapiens, UniProt P54753)
T2 sequence (P54753 whole entry): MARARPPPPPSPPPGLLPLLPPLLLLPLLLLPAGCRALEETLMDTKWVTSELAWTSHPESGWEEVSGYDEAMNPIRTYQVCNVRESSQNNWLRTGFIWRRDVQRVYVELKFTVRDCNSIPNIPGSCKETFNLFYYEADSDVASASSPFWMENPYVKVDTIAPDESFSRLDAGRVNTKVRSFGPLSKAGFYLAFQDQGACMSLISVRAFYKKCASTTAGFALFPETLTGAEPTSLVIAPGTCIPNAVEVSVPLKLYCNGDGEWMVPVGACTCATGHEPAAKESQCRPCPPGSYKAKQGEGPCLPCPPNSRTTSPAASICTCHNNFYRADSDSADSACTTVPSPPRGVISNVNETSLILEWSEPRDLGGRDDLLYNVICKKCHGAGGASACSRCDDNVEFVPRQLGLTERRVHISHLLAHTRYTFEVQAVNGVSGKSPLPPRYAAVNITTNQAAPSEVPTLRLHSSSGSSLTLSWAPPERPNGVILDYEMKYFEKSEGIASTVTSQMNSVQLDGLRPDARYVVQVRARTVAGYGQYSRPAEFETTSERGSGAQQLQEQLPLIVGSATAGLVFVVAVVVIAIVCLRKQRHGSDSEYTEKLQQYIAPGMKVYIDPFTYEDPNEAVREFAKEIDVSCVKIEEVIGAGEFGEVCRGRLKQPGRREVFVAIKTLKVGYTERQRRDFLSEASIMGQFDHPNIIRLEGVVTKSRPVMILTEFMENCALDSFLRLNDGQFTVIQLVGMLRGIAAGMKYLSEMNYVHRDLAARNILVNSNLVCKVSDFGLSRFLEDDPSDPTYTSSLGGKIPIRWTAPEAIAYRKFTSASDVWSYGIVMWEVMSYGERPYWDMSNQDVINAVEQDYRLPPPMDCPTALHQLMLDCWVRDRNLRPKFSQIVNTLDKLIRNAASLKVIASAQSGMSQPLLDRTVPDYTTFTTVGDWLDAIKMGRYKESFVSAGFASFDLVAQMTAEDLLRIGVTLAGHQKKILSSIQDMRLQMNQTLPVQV

LIM domain kinase 2 = LIM domain kinase 2 (Homo sapiens, UniProt P53671)
LIM domain kinase 2, sequence (P53671 whole entry, the tested form may be a part): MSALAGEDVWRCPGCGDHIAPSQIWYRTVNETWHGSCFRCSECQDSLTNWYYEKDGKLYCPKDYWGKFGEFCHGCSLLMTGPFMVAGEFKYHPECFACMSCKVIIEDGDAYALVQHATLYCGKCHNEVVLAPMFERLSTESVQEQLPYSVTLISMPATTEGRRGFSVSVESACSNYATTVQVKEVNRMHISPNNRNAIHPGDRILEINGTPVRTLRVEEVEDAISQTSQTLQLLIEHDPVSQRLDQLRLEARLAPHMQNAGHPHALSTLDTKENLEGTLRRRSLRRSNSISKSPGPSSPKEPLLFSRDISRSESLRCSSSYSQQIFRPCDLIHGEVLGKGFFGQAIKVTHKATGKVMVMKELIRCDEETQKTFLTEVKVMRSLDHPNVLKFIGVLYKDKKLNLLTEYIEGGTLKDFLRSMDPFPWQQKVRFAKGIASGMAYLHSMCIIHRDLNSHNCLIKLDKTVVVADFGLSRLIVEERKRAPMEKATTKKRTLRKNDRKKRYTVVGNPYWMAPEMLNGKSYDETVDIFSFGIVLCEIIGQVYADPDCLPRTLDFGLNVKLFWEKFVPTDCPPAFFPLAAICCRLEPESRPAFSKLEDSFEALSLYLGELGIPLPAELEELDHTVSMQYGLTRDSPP
Also: in the data inactive means no Kd found up to 30 µM.

Calcium/calmodulin-dependent protein kinase type II subunit delta, sequence (Q13557 whole entry): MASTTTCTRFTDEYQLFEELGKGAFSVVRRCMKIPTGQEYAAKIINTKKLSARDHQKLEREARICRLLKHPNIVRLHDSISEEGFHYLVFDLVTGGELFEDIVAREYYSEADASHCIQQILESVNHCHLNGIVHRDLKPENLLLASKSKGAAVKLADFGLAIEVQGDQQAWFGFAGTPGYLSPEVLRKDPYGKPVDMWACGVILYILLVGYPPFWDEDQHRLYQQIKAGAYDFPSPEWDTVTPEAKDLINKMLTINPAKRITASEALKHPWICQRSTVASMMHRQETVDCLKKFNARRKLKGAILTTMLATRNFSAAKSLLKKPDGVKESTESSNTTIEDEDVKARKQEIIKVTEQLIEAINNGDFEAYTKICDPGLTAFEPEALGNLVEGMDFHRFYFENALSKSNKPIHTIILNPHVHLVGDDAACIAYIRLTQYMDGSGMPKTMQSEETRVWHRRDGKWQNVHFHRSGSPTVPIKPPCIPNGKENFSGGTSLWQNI
Maternal embryonic leucine zipper kinase, sequence (Q14680 whole entry): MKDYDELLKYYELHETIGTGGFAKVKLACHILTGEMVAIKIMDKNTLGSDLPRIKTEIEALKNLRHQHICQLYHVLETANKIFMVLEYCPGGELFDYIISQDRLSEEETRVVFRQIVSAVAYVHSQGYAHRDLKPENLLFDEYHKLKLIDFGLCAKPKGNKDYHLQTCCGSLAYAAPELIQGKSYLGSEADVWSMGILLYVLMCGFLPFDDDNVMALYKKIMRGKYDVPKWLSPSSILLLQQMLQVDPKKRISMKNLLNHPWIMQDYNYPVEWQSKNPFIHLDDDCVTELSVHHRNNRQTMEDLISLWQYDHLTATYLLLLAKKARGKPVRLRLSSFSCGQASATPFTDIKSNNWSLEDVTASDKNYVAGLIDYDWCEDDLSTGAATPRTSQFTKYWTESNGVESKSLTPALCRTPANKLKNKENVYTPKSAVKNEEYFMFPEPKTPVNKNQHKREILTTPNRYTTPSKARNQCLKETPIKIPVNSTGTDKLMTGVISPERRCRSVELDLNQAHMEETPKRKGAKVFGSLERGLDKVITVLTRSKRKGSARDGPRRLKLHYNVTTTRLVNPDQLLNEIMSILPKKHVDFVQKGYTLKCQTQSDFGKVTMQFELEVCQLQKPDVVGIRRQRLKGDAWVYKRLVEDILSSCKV

Row | SMILES | Kd [1] | Kd [2] | Kd [3] | Kd [4] | Kd [5] | Kd (Ephrin type-B receptor 3) | Kd (LIM domain kinase 2)
1 | O[C@H]1CC[C@H](Nc2ncc3nc(Nc4c(F)cc(F)cc4F)n([C@H]4CCOC4)c3n2)CC1 [TANZISERTIB] | > 30 µM (inactive) | > 30 µM (inactive) | > 30 µM (inactive) | > 30 µM (inactive) | 0.156 µM (active) | > 30 µM (inactive) | 1.84 µM (active)
2 | C=CCn1c(=O)c2cnc(Nc3ccc(N4CCN(C)CC4)cc3)nc2n1-c1cccc(C(C)(C)O)n1 [ADAVOSERTIB] | > 30 µM (inactive) | > 30 µM (inactive) | > 30 µM (inactive) | > 30 µM (inactive) | 0.418 µM (active) | > 30 µM (inactive) | > 30 µM (inactive)
3 | Cc1cc(-c2cc(OC(=O)c3ccccc3)ccc2Cl)cc2nnc(Nc3ccc(OCCN4CCCC4)cc3)nc12 [TG100-801] | > 30 µM (inactive) | > 30 µM (inactive) | 4.43 µM (active) | > 30 µM (inactive) | 0.824 µM (active) | > 30 µM (inactive) | > 30 µM (inactive)
4 | CCN1CCN(Cc2ccc(Nc3ncc(F)c(-c4cc(F)c5nc(C)n(C(C)C)c5c4)n3)nc2)CC1 [ABEMACICLIB] | > 30 µM (inactive) | 0.019 µM (active) | > 30 µM (inactive) | 2.6 µM (active) | 2.19 µM (active) | > 30 µM (inactive) | > 30 µM (inactive)
5 | FC(F)(F)c1ccc(CNc2ccc(Cc3c[nH]c4ncc(Cl)cc34)cn2)cn1 [PEXIDARTINIB] | > 30 µM (inactive) | > 30 µM (inactive) | > 30 µM (inactive) | > 30 µM (inactive) | > 30 µM (inactive) | > 30 µM (inactive) | > 30 µM (inactive)
6 | O=c1[nH]c([C@@H]2CCCN2)nc2c1oc1ccc(Cl)cc12 | > 30 µM (inactive) | > 30 µM (inactive) | > 30 µM (inactive) | > 30 µM (inactive) | > 30 µM (inactive) | > 30 µM (inactive) | > 30 µM (inactive)
7 | C=CC(=O)Nc1cccc(Nc2nc(Nc3ccc(N4CCN(C(C)=O)CC4)cc3OC)ncc2C(F)(F)F)c1 [ROCILETINIB] | > 30 µM (inactive) | > 30 µM (inactive) | > 30 µM (inactive) | > 30 µM (inactive) | 0.45 µM (active) | > 30 µM (inactive) | > 30 µM (inactive)
8 | O=S(=O)(c1cccc2c(O)nccc12)N1CCCNCC1 [HYDROXYFASUDIL] | > 30 µM (inactive) | > 30 µM (inactive) | > 30 µM (inactive) | > 30 µM (inactive) | > 30 µM (inactive) | > 30 µM (inactive) | > 30 µM (inactive)
9 | COCCN1CCN(Cc2ccc(-c3n[nH]c4c3C(=O)c3c(NC(=O)NN5CCOCC5)cccc3-4)cc2)CC1 [RGB-286638] | 1.46 µM (active) | > 30 µM (inactive) | > 30 µM (inactive) | > 30 µM (inactive) | 0.004 µM (active) | > 30 µM (inactive) | > 30 µM (inactive)
10 | CC[C@@](C)(Nc1ccnc(-c2c[nH]c3ncccc23)n1)C(=O)NCC(F)(F)F [DECERNOTINIB] | > 30 µM (inactive) | 20.3 µM (active) | > 30 µM (inactive) | > 30 µM (inactive) | > 30 µM (inactive) | > 30 µM (inactive) | > 30 µM (inactive)
11 | CCc1cc2c(cc1N1CCC(N3CCOCC3)CC1)C(C)(C)c1[nH]c3cc(C#N)ccc3c1C2=O [ALECTINIB] | > 30 µM (inactive) | > 30 µM (inactive) | > 30 µM (inactive) | 35.6 µM (active) | 0.259 µM (active) | > 30 µM (inactive) | > 30 µM (inactive)
12 | COc1cc(Nc2ncc(F)c(Nc3ccc4c(n3)N(COP(=O)(O)O)C(=O)C(C)(C)O4)n2)cc(OC)c1OC [FOSTAMATINIB] | > 30 µM (inactive) | > 30 µM (inactive) | > 30 µM (inactive) | > 30 µM (inactive) | > 30 µM (inactive) | > 30 µM (inactive) | > 30 µM (inactive)
13 | Cc1ccc(C(=O)Nc2ccc(Oc3cc4cnn(C)c4cc3-c3cn[nH]c3)c(F)c2)c(=O)n1-c1ccc(F)cc1 [MERESTINIB] | > 30 µM (inactive) | > 30 µM (inactive) | > 30 µM (inactive) | > 30 µM (inactive) | > 30 µM (inactive) | > 30 µM (inactive) | > 30 µM (inactive)
14 | O=C(NOC[C@H](O)CO)c1ccc(F)c(F)c1Nc1ccc(I)cc1F [MIRDAMETINIB] | > 30 µM (inactive) | > 30 µM (inactive) | > 30 µM (inactive) | > 30 µM (inactive) | > 30 µM (inactive) | > 30 µM (inactive) | > 30 µM (inactive)
15 | C[C@@H]1COC(Nc2ccc3ncnc(Nc4ccc(OCc5nccs5)c(Cl)c4)c3c2)=N1 [VARLITINIB] | > 30 µM (inactive) | > 30 µM (inactive) | 0.321 µM (active) | > 30 µM (inactive) | > 30 µM (inactive) | > 30 µM (inactive) | > 30 µM (inactive)

The next lines start with the values.

Row | Kd [1] | Kd [2] | Kd [3] | Kd [4] | Kd [5] | Kd (Ephrin type-B receptor 3) | Kd (LIM domain kinase 2) | SMILES
16 | > 30 µM (inactive) | > 30 µM (inactive) | > 30 µM (inactive) | > 30 µM (inactive) | > 30 µM (inactive) | > 30 µM (inactive) | > 30 µM (inactive) | Cn1c(=O)c(F)c(Nc2ccc(I)cc2F)c2c(=O)n(C[C@@H](O)CO)cnc21 [TAK-733]
17 | > 30 µM (inactive) | > 30 µM (inactive) | > 30 µM (inactive) | > 30 µM (inactive) | > 30 µM (inactive) | > 30 µM (inactive) | > 30 µM (inactive) | COc1cccc2cc(-c3nc([C@H]4CC[C@H](C(=O)O)CC4)n4ncnc(N)c34)[nH]c12 [OSI-027]
18 | 0.217 µM (active) | > 30 µM (inactive) | > 30 µM (inactive) | > 30 µM (inactive) | 1.46 µM (active) | > 30 µM (inactive) | > 30 µM (inactive) | c1cc(OCCN2CCCCC2)cc(-c2n[nH]c3ccc(-c4nc[nH]n4)cc23)c1 [CC-401]
19 | > 30 µM (inactive) | > 30 µM (inactive) | > 30 µM (inactive) | > 30 µM (inactive) | > 30 µM (inactive) | > 30 µM (inactive) | > 30 µM (inactive) | CCOc1ccn(-c2ccc(F)cc2)c(=O)c1C(=O)Nc1ccc(Oc2ccnc(N)c2Cl)c(F)c1 [BMS-777607]
